For one series, the target named is desmolase. The experiment in a line: inhibition of cholesterol side chain cleavage (SCC) activity (desmolase). In kind it is biochemical. As to conditions: mitochondrial fraction from human placenta or bovine adrenals, 37° C., 30 min; read-out: DESMOLASE IC-50.
The nature of series [1]: acute toxicity, LD50, oral, mice. As to conditions: mouse, in vivo, young adult female NMRI-Stmin mice. On the procedure:
Acute toxicity, LD50, was determined by using young adult female mice of NMRI-Stmin. The administration of the test compounds was oral.

In another series the target is T1, human aromatase (Homo sapiens, UniProt P11511).
T1 construct: The enzyme was prepared from human placenta, which is rich of the enzyme; from tissue; host or cells: human placenta, microsomal fraction (100000×g precipitate), not further purified
T1 sequence (P11511 1-503): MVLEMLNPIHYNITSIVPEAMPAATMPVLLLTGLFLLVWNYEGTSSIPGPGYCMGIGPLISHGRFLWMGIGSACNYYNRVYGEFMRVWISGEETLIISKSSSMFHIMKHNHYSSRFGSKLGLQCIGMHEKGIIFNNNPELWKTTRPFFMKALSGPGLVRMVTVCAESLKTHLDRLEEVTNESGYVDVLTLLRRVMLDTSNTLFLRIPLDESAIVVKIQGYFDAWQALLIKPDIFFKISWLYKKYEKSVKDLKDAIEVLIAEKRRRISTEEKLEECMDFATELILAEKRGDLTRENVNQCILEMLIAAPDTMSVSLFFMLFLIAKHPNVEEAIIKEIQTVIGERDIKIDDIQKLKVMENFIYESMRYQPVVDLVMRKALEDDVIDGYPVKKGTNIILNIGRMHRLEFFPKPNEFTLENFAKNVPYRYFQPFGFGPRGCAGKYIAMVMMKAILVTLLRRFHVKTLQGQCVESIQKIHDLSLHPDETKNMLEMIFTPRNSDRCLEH
The experiment in a line: in vitro inhibition of aromatase (human placental microsomes, 3H2O release). In kind it is biochemical. The following applies: 37° C., 40 min, read-out: AROMATASE IC-50 (converted).

The text below walks through data of US5559141A, “Selective aromatase inhibiting 4(5)-imidazoles” (Orion-yhtyma Oy, priority 1991, dated 1996).

Protocol for desmolase: Incubations were carried out in 1,5 ml Eppendorf plastic tubes, and an Eppendorf shaker, centrifuge and incubator were used as a unit. […] Controls contained all the above substances but the enzyme preparation was inactivated prior to the incubation by the addition of 900 μof methanol. The mitochondrial fraction (1 mg protein) from human placenta or bovine adrenals was used as a source of enzyme. After 30 min incubation at 37° C., the reaction was terminated by the addition of 900 μl of methanol; 1500 dpm of marker ^14 C-4-pregnenolone was added to each incubate and the tubes were vigorously shaken. […] The column was washed with one ml of 75% methanol and then with 3 ml of 80% methanol. The 80% methanol eluate was run into the counting vial and 10 ml of scintillation liquid was added. Radioactivity was counted using a double-label program on a liquid scintillation counter (LKB RackBeta). Typical activities for placental and bovine adrenal enzyme preparation were 0,5-3 and 50-100 pmol pregnenolone formed/mg protein/min,respectively.
In inhibition experiments, the substance (final concentration range from 1 to 1000 μM) was added into incubation mixture in a volume of 10-20 μl, usually as methanol or ethanol solution. The same volume of the solute was added into control incubation vial.
Protocol for human aromatase: Human aromatase enzyme was used. The enzyme was prepared from human placenta, which is rich of the enzyme. Microsomal fraction (100000×g precipitate) was prepared by centrifugation. The enzyme preparation was used without further purification. […] The incubation was camed out at 37° C. for 40 min. Aromatization of 1,2[^3 H]-androstene-3,17-dione results in the production of ^3 H2 O. The tritiated water and the tritiated substrate are easily separated by a Sep-Pak™ minicolumn, which absorbs the steroid but allows free water elution. Radioactivity was counted by a liquid scintillation counter. Aromatase inhibition was evaluated by comparing the ^3 H2 O-radioactivity of inhibitor treated samples to controls containing no inhibitor. IC-50 values were calculated as concentrations which inhibited the enzyme activity 50%.

Regarding `N#Cc1ccc(C(=CCCc2ccc(F)cc2)c2c[nH]cn2)cc1` (single isomer, unassigned; isomer a) [Compound 4b, 4-[1-(4-cyanophenyl)-4-(4-fluorophenyl)-1-butenyl]-1H-imidazole, isomer a], the IC50 on desmolase worked out at 33 µM. For orientation: LD50 means the dose at which mortality reaches 50%. For `N#Cc1ccc(C(=CCc2ccc(F)cc2)c2c[nH]cn2)cc1` (single isomer, unassigned; isomer a) [Compound 6b, 4-[1-(4-cyanophenyl)-3-(4-fluorophenyl)-1-propenyl]-1H-imidazole, isomer a], at desmolase, the IC50 came to 36 µM. Besides, in series [1], the LD50 is over 400 mg/kg. As for `N#Cc1ccc(C(=CCCc2ccc(F)cc2)c2c[nH]cn2)cc1` (single isomer, unassigned; isomer b) [Compound 5b, 4-[1-(4-cyanophenyl)-4-(4-fluorophenyl)-1-butenyl]-1H-imidazole, isomer b], on desmolase, the IC50 was over 1000 µM. Same read-out and setting: as for `N#Cc1ccc(C(CCc2c[nH]cn2)c2ccccc2)cc1` (stereo not shown) [Compound 1a, 4-[3-(4-cyanophenyl)-3-phenylpropyl]-1H-imidazole], the figure is 14 µM. The same measure, in the same setting: the figure for `N#Cc1ccc(C(CCCc2ccccc2)c2c[nH]cn2)cc1` (stereo not shown) [Compound 1b, 4-[1-(4-cyanophenyl)-4-phenylbutyl]-1H-imidazole] is 12 µM; for `N#Cc1ccc(C(CCc2c[nH]cn2)c2ccc(C#N)cc2)cc1` [Compound 2a, 4-[3,3-bis(4-cyanophenyl)propyl]-1H-imidazole] it is 36 µM; for `N#Cc1ccc(C(CCCc2ccc(F)cc2)c2c[nH]cn2)cc1` (stereo not shown) [Compound 2b, 4-[1-(4-cyanophenyl)-4-(4-fluorophenyl)butyl]-1H-imidazole] it is 20 µM. Regarding `N#Cc1ccc(C(CCc2c[nH]cn2)c2ccc(F)cc2)cc1` (stereo not shown) [Compound 3a, 4-[3-(4-cyanophenyl)-3-(4-fluorophenyl)propyl]-1H-imidazole], the IC50 at desmolase stood at 43 µM. This molecule also showed a median lethal dose (LD50) in series [1] of 210 mg/kg. Take `N#Cc1ccc(C(=CCCc2ccc(F)cc2)c2c[nH]cn2)cc1` [Compound 3b, 4-[1-(4-cyanophenyl)-4-(4-fluorophenyl)-1-butenyl)-1H-imidazole]: the IC50 on desmolase stood at 26 µM. `N#Cc1ccc(C(=CCc2c[nH]cn2)c2ccc(F)cc2)cc1` [Compound 4a, 4-[3-(4-cyanophenyl)-3-(4-fluorophenyl)-2-propenyl]-1H-imidazole]: the results for the IC50 at desmolase and on human aromatase were 62 µM and 0.65 µM, respectively.

For `N#Cc1ccc(C(=CCc2cncn2Cc2ccccc2)c2ccc(C#N)cc2)cc1` [Compound 5a, 1-benzyl-5-[3,3-bis(4-cyanophenyl)-2-propenyl]-1H-imidazole], the IC50 at human aromatase is 3.2 µM. Regarding `N#Cc1ccc(C(CCCc2c[nH]cn2)c2ccc(C#N)cc2)cc1` [Compound 6a, 4-[4,4-bis(4-cyanophenyl)butyl]-1H-imidazole], the IC50 at desmolase came to 47 µM. On to `N#Cc1ccc(C(CCCc2cncn2Cc2ccccc2)c2ccc(C#N)cc2)cc1` [Compound 7a, 1-benzyl-5-[4,4-bis(4-cyanophenyl)butyl]-1H-imidazole], for which the IC50 at desmolase was 22 µM; on human aromatase, 5 µM. On the same counts, the results for `N#Cc1ccc(C(=CCc2c[nH]cn2)c2ccc(C#N)cc2)cc1` [Compound 8a, 4-[3,3-bis(4-cyanophenyl)-2-propenyl]-1H-imidazole] are 33 µM and 0.97 µM. For `N#Cc1ccc(CC=C(c2ccc(F)cc2)c2c[nH]cn2)cc1` [Compound 8b, 4-[3-(4-cyanophenyl)-1-(4-fluorophenyl)-1-propenyl]-1H-imidazole], at human aromatase, the IC50 is 1 µM. Turning to `N#Cc1ccc(C(CCc2c[nH]cn2)c2ccc(C(F)(F)F)cc2)cc1` (stereo not shown) [Compound 9a, 4-[3-(4-cyanophenyl)-3-(4-trifluoromethylphenyl)propyl]-1H-imidazole], on desmolase, the IC50 came to 64 µM. Still for that read-out and setting: the figure for `COc1ccc(C(CCc2c[nH]cn2)c2ccc(C#N)cc2)cc1` (stereo not shown) [Compound 10a, 4-[3-(4-cyanophenyl)-3-(4-methoxyphenyl)propyl]-1H-imidazole] is 33 µM.
